Test systems include SN12C renal; MOLT-4 leukemia; DMS 273 small cell lung; DLD-1 colon; LXFL 529 NSCLC; M19-MEL melanoma; T-47D breast; MDA-MB-435; MCF7 breast; BT-549 breast.
Holding throughout (test): inhibition of tumour cell growth, NCI panel, 48 h

SMILES strings stand for the structures. Values joined by “and” are separate entries in the source; they are usually repeats but may differ in a detail not shown here. Equal values may be shown once.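 Grown in 96-well plates, cells were treated for 48 hours with each compound at five concentrations. Insufficient inhibition: endpoint recorded as highest concentration tested. GI50 is the concentration that inhibits growth by half. TGI: concentration producing complete growth inhibition.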

From PubChem BioAssay (NCI) come the findings set out here.

Turning to `COC(=O)c1ccc2n[se]nc2c1`, the TGI in the test on SN12C renal, in the test with MOLT-4 leukemia, in the test with DMS 273 small cell lung, in the test with DLD-1 colon, in the test with LXFL 529 NSCLC and in the test with M19-MEL melanoma was greater than 100 µM throughout.

Regarding `O=C(N/C(=C\c1cc(Cl)ccc1Cl)c1nc2ccccc2[nH]1)c1ccccc1`, the TGI in the test on SN12C renal was greater than 100 µM; with MOLT-4 leukemia, 63.8 µM; in the test on DLD-1 colon, 37 µM; with LXFL 529 NSCLC it was greater than 100 µM; in the test on M19-MEL melanoma, greater than 100 µM.

Regarding `COc1cc(C=C2C(=O)OC(C)(C)OC2=O)cc(OC)c1OC`, the TGI with SN12C renal, with MOLT-4 leukemia, in the test on DMS 273 small cell lung, with DLD-1 colon, in the test on LXFL 529 NSCLC and in the test with M19-MEL melanoma was greater than 100 µM throughout.

Take `CC(=O)OC1CC[C@@]2(C)C(CC(OC3OC(CO)C(O)C(O)C3O)[C@]3(C)C2CCC24CC23CC[C@H]4C(C)CC(O)[C@@H](O)C(C)(C)O)C1(C)C` (stereo partly drawn): the TGI is 30.7 µM in the test on SN12C renal; 24.7 µM in the test on MOLT-4 leukemia; greater than 50 µM in the test on DMS 273 small cell lung; greater than 50 µM with DLD-1 colon; 16.1 µM in the test on LXFL 529 NSCLC; 16 µM with M19-MEL melanoma.

For the molecule `COC(=O)c1nc(N)[nH]c(=O)c1-c1ccc(Cl)cc1`, the TGI in the test with SN12C renal, in the test on MOLT-4 leukemia, in the test on DMS 273 small cell lung, in the test with DLD-1 colon, with LXFL 529 NSCLC and in the test with M19-MEL melanoma was greater than 100 µM in each case.

For the molecule `Clc1cc(Cl)c2n[se]nc2c1`, the TGI in the test on SN12C renal, in the test on MOLT-4 leukemia, with DMS 273 small cell lung and with M19-MEL melanoma was greater than 100 µM each time.

As to `COc1ncn(C2C=C(CO)C(O)C2O)c(=O)n1` (stereo not drawn), the TGI in the test on SN12C renal, with MOLT-4 leukemia, in the test with DMS 273 small cell lung, with DLD-1 colon and in the test with LXFL 529 NSCLC was greater than 100 µM in each case.

Take `Cc1cc(C)cc(NC(=O)CCC(=O)C2CCC/C2=N\NC(=O)C(=O)NN)c1` (stereo not drawn): the TGI in the test with SN12C renal, in the test on MOLT-4 leukemia, in the test with DMS 273 small cell lung, in the test on DLD-1 colon, with LXFL 529 NSCLC and in the test with M19-MEL melanoma was greater than 100 µM each time.

In the case of `O=C(/C=C(\O)C(=O)O)/C=C(\O)c1ccc(Cl)cc1`, the TGI in the test with SN12C renal, in the test on MOLT-4 leukemia, in the test on DMS 273 small cell lung, in the test on DLD-1 colon, in the test with LXFL 529 NSCLC and in the test with M19-MEL melanoma was greater than 100 µM each time.

For the molecule `COc1cc2c3c(c1OC)C1(C=CC(=O)C=C1)CC3N(C(=O)OC(C)(C)C(Cl)(Cl)Cl)CC2` (stereo not drawn), the TGI came out at 26.6 µM in the test with SN12C renal; 17.9 µM with MOLT-4 leukemia; 24.5 µM in the test on DMS 273 small cell lung; 23.5 µM in the test on DLD-1 colon; 82.9 µM in the test with LXFL 529 NSCLC; 24.3 µM in the test with M19-MEL melanoma.

For the molecule `COC(=O)CC[C@@H](NC(=O)C(C)NC(=O)COC1C(O)C(COC(=O)CCCCCCCCCCNC(=O)c2ccc([N+](=O)[O-])c3[nH]c4cc(Br)ccc4c(=O)c23)OC(OCc2ccccc2)C1NC(C)=O)C(N)=O` (stereo partly drawn), the TGI in the test with SN12C renal was greater than 100 µM; in the test on MOLT-4 leukemia, greater than 100 µM; in the test on DMS 273 small cell lung, greater than 100 µM; in the test with DLD-1 colon, greater than 100 µM; with LXFL 529 NSCLC it was 66.3 µM; in the test with M19-MEL melanoma, greater than 100 µM.

As to `NC(N)=Nc1nc2cc(N)ccc2o1`, the TGI in the test with SN12C renal, in the test on MOLT-4 leukemia, with DLD-1 colon and in the test on M19-MEL melanoma was greater than 100 µM throughout.

`O=C1/C=C(/c2ccc(O)cc2)[C@H](O)Cc2ccc(OC3OC(CO)C(O)C(O)C3O)cc2O1` (stereo partly drawn) (tested in a mixture with another compound): the TGI with SN12C renal, in the test on DLD-1 colon, in the test with LXFL 529 NSCLC and in the test on M19-MEL melanoma was greater than 100 µM throughout.

Regarding `O=C(CC1Sc2ccccc2NC1=O)Nc1ccc([N+](=O)[O-])cc1[N+](=O)[O-]` (stereo not drawn), the TGI in the test with SN12C renal came out at 29.7 µM; in the test with MOLT-4 leukemia, 62.6 µM; in the test with DLD-1 colon it was 28.6 µM; in the test with LXFL 529 NSCLC it was 28.7 µM; with M19-MEL melanoma it was 30.3 µM.

As to `CC(C)(C)NC(=O)C12C3C4C1C1C2C3C41I` (stereo not drawn), the TGI with SN12C renal, with MOLT-4 leukemia, in the test on DMS 273 small cell lung, with LXFL 529 NSCLC and in the test with M19-MEL melanoma was greater than 100 µM each time.

In the case of `N#CC1(Cc2ccccc2Cl)c2ccccc2C=CN1C(=O)c1ccccc1` (stereo not drawn), the TGI with SN12C renal, in the test with MOLT-4 leukemia, with DMS 273 small cell lung, with LXFL 529 NSCLC and in the test with M19-MEL melanoma was greater than 100 µM each time.

Regarding `CCOc1cccc2cccnc12`, the TGI in the test with SN12C renal, with MOLT-4 leukemia, in the test with DLD-1 colon and in the test with LXFL 529 NSCLC was greater than 100 µM throughout.

Turning to `COC1=C(NC(C)=O)C(=O)c2nc3n(c2C1=O)CCC3`, the TGI in the test with T-47D breast was 72.7 µM; in the test with SN12C renal, 32.3 µM; in the test with MOLT-4 leukemia, greater than 66.8 µM; with DMS 273 small cell lung, 34.6 µM; in the test with MDA-MB-435, 9.97 µM; in the test with DLD-1 colon it was 29.3 µM. The molecule further registered a TGI in the test with MCF7 breast of 47.1 µM.

In the case of `Cc1cc(C)c(-c2noc(-c3ccc(Cl)cc3)c2C2=NCCN2)c(C)c1`, the TGI with SN12C renal was 45.5 µM; in the test with MOLT-4 leukemia it was 41.3 µM; with DLD-1 colon, 75.9 µM; with LXFL 529 NSCLC it was 44.5 µM; in the test on M19-MEL melanoma it was greater than 100 µM.

As to `O=C(Nc1ccc(Cl)cc1Cl)c1c/c(=N\O)c2ccc(O)cc2o1`, the TGI in the test on SN12C renal, in the test with MOLT-4 leukemia, in the test with DLD-1 colon, in the test with LXFL 529 NSCLC and in the test on M19-MEL melanoma was greater than 100 µM each time.

As to `CCCCCc1c(C)[nH]c(/C=C2\N=C(c3ccc[nH]3)C=C2Oc2ccc(OC)cc2)c1C`, the GI50 is 0.193 µM and 0.0295 µM with T-47D breast; 0.2 µM and 0.0483 µM in the test with SN12C renal; 0.107 µM and 0.0481 µM in the test on MOLT-4 leukemia; 0.149 µM and 0.0331 µM in the test on MDA-MB-435; 0.353 µM and 0.246 µM in the test on BT-549 breast; 0.0667 µM and 0.0358 µM in the test on MCF7 breast. The TGI with T-47D breast was 0.968 µM and 1.24 µM; in the test with SN12C renal, 1.54 µM and 0.418 µM; with MOLT-4 leukemia, 1.17 µM and 1.67 µM; with MDA-MB-435, 0.387 µM and 0.153 µM; in the test with BT-549 breast, 2.6 µM and 2.36 µM; in the test with MCF7 breast, 1.21 µM and 1.15 µM.

In the case of `COc1ccc2c(c1)C(CCN)C(=O)N2` (stereo not drawn), the TGI in the test with MOLT-4 leukemia, in the test on DMS 273 small cell lung, in the test on DLD-1 colon, in the test with LXFL 529 NSCLC and in the test on M19-MEL melanoma was greater than 100 µM in each case.
